Experimental findings from patent US20250368666A1, “INDAZOLE COMPOUNDS” (TYRA BIOSCIENCES, INC., priority 2022, published 2025) are described below.

One experiment addresses T1, FGFR3 (Homo sapiens, UniProt P22607).
T1 construct: made in house; host or cells: E. coli (BL21-derived), T7 phage
Kind of experiment: Kinase binding assay (kinase-tagged T7 phage, affinity beads, qPCR), Kd. The note with it: read-out: FGFR3 (Kd nM). A digest of the protocol: (§1)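 Phage-tagged kinase capture on small-molecule affinity resin, compound competition, qPCR quantitation; Kd from Levenberg-Marquardt Hill fit.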

For the next experiment, the target named is T2, FGFR1 (Homo sapiens, UniProt P11362).
T2 construct: made in house; host or cells: E. coli (BL21-derived), T7 phage
T2 sequence (P11362 22-822): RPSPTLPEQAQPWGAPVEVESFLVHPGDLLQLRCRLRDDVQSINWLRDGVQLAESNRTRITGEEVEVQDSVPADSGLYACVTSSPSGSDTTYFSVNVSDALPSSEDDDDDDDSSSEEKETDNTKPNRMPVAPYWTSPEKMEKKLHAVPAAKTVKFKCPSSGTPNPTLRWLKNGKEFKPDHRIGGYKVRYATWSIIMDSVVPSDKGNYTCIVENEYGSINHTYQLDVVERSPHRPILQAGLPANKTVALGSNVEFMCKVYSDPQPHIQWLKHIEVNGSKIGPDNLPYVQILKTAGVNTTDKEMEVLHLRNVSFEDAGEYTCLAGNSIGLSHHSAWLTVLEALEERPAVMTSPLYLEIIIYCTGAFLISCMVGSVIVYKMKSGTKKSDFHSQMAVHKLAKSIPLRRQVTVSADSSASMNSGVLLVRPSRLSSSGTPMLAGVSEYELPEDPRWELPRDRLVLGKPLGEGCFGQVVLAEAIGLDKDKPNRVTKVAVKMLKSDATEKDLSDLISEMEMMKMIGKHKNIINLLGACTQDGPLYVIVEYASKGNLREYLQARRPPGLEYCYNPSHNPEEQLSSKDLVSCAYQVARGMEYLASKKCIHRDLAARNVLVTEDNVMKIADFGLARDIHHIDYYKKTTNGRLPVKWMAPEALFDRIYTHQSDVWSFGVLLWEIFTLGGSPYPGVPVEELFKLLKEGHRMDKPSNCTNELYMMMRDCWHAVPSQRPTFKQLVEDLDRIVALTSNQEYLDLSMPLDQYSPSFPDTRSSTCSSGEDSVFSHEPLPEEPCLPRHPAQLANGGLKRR
The description is as above. The note with it: read-out: FGFR1 (Kd nM). A digest of the protocol:
as §1

The subject of experiment [1] is KG-1 cell line (FGFR 1-fusion). Kind of experiment: Cancer cell line cell viability assay (Cell Titer-Glo), 72 hr. The class given is cell-based. The conditions noted are these: Homo sapiens, KG-1, KG-1 cell line (FGFR1-fusion). A digest of the protocol:
(§2)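 ATP-based luminescence (Cell Titer-Glo 2.0) measured viability after 72 h (KG-1, RT112/84) or 120 h (MDA-MB-453, HuH7) compound exposure. Dosing was nine 4-fold steps starting at 3 μM, in triplicate, on overnight-plated cells. IC50 came from a variable-slope 4-parameter fit of % DMSO control.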

In experiment [2] the test system is KATO-III cell line (FGFR2 amplification). Described as above. The class given is cell-based. The conditions noted are these: Homo sapiens, KATO III. A digest of the protocol: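 Cells seeded at 5,000-20,000/well, incubated overnight, then treated with a 9-dose, 4-fold dilution series from 3 μM in triplicate at 37° C, 5% CO2. Viability read by Cell Titer-Glo 2.0 luminescence as percent of DMSO control; IC50 from 4-parameter variable-slope sigmoidal fit.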

The test system of experiment [3] is RT112/84 cell line (FGFR3-fusion). Described as above. The class given is cell-based. The conditions noted are these: Homo sapiens, RT112/84, RT112/84 cell line (FGFR3-fusion). A digest of the protocol:
as §2

For experiment [4], the system named is MDA-MB-453 cell line (FGFR4-Y367C). Put plainly: Cancer cell line cell viability assay (Cell Titer-Glo), 120 hr. In kind it is cell-based. The note with it: Homo sapiens. A digest of the protocol: as §2
For orientation: ATP-based viability assays read luminescence as a measure of living cells.

The next experiment has as its target T3, FGFR4 (Homo sapiens, UniProt P22455).
T3 construct: made in house; host or cells: E. coli (BL21-derived), T7 phage
Kind of experiment: Kinase binding assay (kinase-tagged T7 phage, affinity beads, qPCR), Kd. The note with it: read-out: FGFR4 (Kd nM). A digest of the protocol:
as §1

A further experiment has as its target T4, FGFR2 (Homo sapiens, UniProt P21802).
T4 construct: made in house; host or cells: E. coli (BL21-derived), T7 phage
The experiment is described as above. The note with it: read-out: FGFR2 (Kd nM). A digest of the protocol: as §1

The target in a further experiment is T5, FGFR3 (V555M) (Homo sapiens, UniProt P22607, V555M).
T5 construct: made in house; host or cells: E. coli (BL21-derived), T7 phage
T5 sequence (P22607 23-806 V555M): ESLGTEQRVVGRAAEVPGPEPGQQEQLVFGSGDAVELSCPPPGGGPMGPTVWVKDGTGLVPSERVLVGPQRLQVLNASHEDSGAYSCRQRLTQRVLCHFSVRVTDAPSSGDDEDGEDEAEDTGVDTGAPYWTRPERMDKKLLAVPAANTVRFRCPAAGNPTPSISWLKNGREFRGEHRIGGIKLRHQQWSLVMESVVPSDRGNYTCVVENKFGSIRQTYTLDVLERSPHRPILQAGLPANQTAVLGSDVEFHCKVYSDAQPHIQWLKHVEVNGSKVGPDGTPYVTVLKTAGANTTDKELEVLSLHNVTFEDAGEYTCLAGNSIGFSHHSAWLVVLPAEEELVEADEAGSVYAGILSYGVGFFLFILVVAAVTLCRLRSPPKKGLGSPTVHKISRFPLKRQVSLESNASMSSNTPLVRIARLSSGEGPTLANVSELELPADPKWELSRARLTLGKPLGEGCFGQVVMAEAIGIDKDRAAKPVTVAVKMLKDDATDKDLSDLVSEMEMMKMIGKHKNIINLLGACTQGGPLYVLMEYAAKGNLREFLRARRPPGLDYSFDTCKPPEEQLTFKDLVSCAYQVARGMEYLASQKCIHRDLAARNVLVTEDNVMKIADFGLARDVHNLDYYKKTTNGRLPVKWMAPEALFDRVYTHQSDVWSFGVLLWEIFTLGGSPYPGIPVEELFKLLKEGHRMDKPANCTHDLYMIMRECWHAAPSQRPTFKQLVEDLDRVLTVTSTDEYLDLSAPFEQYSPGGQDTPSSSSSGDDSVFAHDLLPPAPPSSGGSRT
The experiment is described as above. The conditions noted are these: V555M mutant; read-out: FGFR3 (V555M) (Kd nM). A digest of the protocol:
as §1

Experiment [5] has as its system HuH7 cell line (FGF19 amplification). Kind of experiment: Cancer cell line cell viability assay (Cell Titer-Glo), 120 hr. In kind it is cell-based. The conditions noted are these: Homo sapiens, Huh-7. A digest of the protocol: as §2

T1 sequence (P22607 23-806): as the sequence (P22607 23-806 V555M) above, with M533V counted along it
T4 sequence (P21802 22-821): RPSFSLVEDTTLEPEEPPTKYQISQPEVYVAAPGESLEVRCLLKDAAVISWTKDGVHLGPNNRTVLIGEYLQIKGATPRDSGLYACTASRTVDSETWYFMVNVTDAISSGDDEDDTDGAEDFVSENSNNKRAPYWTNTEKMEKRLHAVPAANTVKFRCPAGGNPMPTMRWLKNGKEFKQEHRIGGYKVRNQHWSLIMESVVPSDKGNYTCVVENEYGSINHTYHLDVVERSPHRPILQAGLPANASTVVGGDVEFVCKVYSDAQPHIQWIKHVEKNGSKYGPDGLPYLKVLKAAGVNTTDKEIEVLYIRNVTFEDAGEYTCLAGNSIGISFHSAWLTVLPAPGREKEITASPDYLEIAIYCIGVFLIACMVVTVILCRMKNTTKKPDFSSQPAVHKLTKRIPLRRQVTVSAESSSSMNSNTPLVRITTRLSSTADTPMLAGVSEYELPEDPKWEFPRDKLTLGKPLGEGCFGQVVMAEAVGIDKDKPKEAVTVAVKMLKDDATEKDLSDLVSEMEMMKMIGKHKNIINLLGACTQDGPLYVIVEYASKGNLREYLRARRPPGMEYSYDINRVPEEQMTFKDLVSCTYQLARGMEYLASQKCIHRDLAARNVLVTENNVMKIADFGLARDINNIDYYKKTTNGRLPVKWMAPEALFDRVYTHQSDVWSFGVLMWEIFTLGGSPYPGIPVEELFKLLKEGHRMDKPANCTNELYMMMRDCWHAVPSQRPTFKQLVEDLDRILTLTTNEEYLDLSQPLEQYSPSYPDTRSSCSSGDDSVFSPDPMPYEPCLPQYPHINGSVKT
T3 sequence (P22455 22-802): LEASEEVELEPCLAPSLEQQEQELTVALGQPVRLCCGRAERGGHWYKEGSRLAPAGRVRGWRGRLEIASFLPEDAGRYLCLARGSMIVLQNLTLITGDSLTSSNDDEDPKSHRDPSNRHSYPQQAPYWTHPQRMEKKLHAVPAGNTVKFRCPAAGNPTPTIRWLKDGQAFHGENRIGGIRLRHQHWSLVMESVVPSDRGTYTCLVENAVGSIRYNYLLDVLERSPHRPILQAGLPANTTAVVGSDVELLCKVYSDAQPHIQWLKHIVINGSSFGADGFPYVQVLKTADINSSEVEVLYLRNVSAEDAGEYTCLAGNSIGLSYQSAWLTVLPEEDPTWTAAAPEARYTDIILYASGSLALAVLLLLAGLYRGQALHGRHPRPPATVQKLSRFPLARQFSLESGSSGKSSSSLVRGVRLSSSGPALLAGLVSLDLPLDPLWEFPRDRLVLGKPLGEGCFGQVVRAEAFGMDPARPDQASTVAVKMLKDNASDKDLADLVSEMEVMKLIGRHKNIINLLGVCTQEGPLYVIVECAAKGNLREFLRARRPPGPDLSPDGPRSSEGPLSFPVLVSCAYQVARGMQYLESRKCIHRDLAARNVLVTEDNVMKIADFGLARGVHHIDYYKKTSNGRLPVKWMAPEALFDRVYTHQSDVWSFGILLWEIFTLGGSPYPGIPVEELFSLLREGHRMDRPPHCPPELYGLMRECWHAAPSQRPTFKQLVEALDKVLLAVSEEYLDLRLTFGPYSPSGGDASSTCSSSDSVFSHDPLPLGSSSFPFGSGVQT

Take `CC(C)CC1(N)CN(c2ncc(-c3n[nH]c4ccc(O[C@H](C)c5c(Cl)cncc5Cl)cc34)cc2F)C1` [Example 258, (R)-1-(5-(5-(1-(3,5-dichloropyridin-4-yl)ethoxy)-1H-indazol-3-yl)-3-fluoropyridin-2-yl)-3-isobutylazetidin-3-amine]: the Kd at FGFR3 and at FGFR1 was 1 to 50 nM throughout. The IC50 (in general, the midpoint of a concentration-inhibition curve) in experiment [1] lay in the range of 200 to 1000 nM; in experiment [2] it was 50 to 200 nM; in [3] it was 0.1 to 50 nM; in experiment [4] it was 200 to 1000 nM.
Regarding `C[C@@H](Oc1ccc2[nH]nc(-c3cnc(N4CC(N)(Cc5ccnn5C)C4)c(F)c3)c2c1)c1c(Cl)cncc1Cl` [Example 283, (R)-1-(5-(5-(1-(3,5-dichloropyridin-4-yl)ethoxy)-1H-indazol-3-yl)-3-fluoropyridin-2-yl)-3-((1-methyl-1H-pyrazol-5-yl)methyl)azetidin-3-amine], the Kd on FGFR3 and on FGFR1 was 1 to 50 nM throughout. Further, the IC50 in [1], in experiment [2], in experiment [3] and in experiment [4] was 0.1 to 50 nM each time.
As to `COCCC1(N)CN(c2ncc(-c3n[nH]c4ccc(O[C@H](C)c5c(Cl)cncc5Cl)cc34)cc2F)C1` [Example 273, (R)-1-(5-(5-(1-(3,5-dichloropyridin-4-yl)ethoxy)-1H-indazol-3-yl)-3-fluoropyridin-2-yl)-3-(2-methoxy-ethyl)azetidin-3-amine], the Kd on FGFR3 and on FGFR1 was 1 to 50 nM each time. The concentration for half-maximal inhibition (IC50) in experiment [1], in experiment [2], in experiment [3] and in experiment [4] was 0.1 to 50 nM in each case.
In the case of `C[C@@H](Oc1ccc2[nH]nc(-c3ccc(N4CC(N)(CC5CC5)C4)nn3)c2c1)c1c(Cl)cncc1Cl` [Example 272, (R)-3-(cyclopropylmethyl)-1-(6-(5-(1-(3,5-dichloropyridin-4-yl)ethoxy)-1H-indazol-3-yl)pyridazin-3-yl)azetidin-3-amine], the equilibrium dissociation constant (Kd) on FGFR3 and at FGFR1 was 1 to 50 nM in each case. For the same molecule, the IC50 in experiment [1] was in the range of 50 to 200 nM; in experiment [2] it was 50 to 200 nM; in experiment [3], 0.1 to 50 nM; in [4], 200 to 1000 nM.
In the case of `CC(C)C1(N)CN(c2ncc(-c3n[nH]c4ccc(O[C@H](C)c5c(Cl)cncc5Cl)cc34)cc2F)C1` [Example 255, (R)-1-(5-(5-(1-(3,5-dichloropyridin-4-yl)ethoxy)-1H-indazol-3-yl)-3-fluoropyridin-2-yl)-3-isopropylazetidin-3-amine], the equilibrium dissociation constant (Kd) at FGFR3 and on FGFR1 was 1 to 50 nM each time. In addition, the 50% inhibitory concentration (IC50) was in the range of 50 to 200 nM in experiment [1], 0.1 to 50 nM in experiment [2], 0.1 to 50 nM in experiment [3] and 50 to 200 nM in experiment [4].
Consider `C[C@@H](Oc1ccc2[nH]nc(-c3ccc(N4CC(N)(CCC#N)C4)nn3)c2c1)c1c(Cl)cncc1Cl` [Example 285, (R)-3-(3-amino-1-(6-(5-(1-(3,5-dichloropyridin-4-yl)ethoxy)-1H-indazol-3-yl)pyridazin-3-yl)azetidin-3-yl)propanenitrile], for which the Kd on FGFR3 and at FGFR1 was 1 to 50 nM each time. Moreover, the IC50 lay within 0.1 to 50 nM in experiment [1], 0.1 to 50 nM in [2], 0.1 to 50 nM in [3] and 200 to 1000 nM in experiment [4].
On to `C[C@@H](Oc1ccc2[nH]nc(-c3ccc(N4CC(C)(OCCN5CCCC5)C4)nn3)c2c1)c1c(Cl)cncc1Cl` [Example 269, (R)-5-(1-(3,5-dichloropyridin-4-yl)ethoxy)-3-(6-(3-methyl-3-(2-(pyrrolidin-1-yl)ethoxy)azetidin-1-yl)pyridazin-3-yl)-1H-indazole], for which the Kd at FGFR3 and on FGFR1 was 1 to 50 nM throughout. Besides, the 50% inhibitory concentration (IC50) in experiment [1] fell in the range of 50 to 200 nM; in [2] it was 0.1 to 50 nM; in experiment [3], 0.1 to 50 nM; in experiment [4] it was 200 to 1000 nM.
`Cc1ncc(Cl)c([C@@H](C)Oc2ccc3[nH]nc(-c4cnc(N5CC(CC#N)(NCC6CC6)C5)c(F)c4)c3c2)c1Cl` [Example 250, 2-[3-(cyclopropylmethyl-amino)-1-[5-[5-[(1R)-1-(3,5-di-chloro-2-methyl-4-pyridyl)ethoxy]-1H-indazol-3-yl]-3-fluoro-2-pyridyl]azetidin-3-yl]acetonitrile]: the Kd – broadly, the concentration at which binding is half-saturated – at FGFR3 fell in the range of 1 to 50 nM; on FGFR1 it was 50 to 300 nM. Also, the IC50 is 200 to 1000 nM in [1], 50 to 200 nM in [2], 0.1 to 50 nM in experiment [3] and 200 to 1000 nM in experiment [4].
For `C=CCC1(N)CN(c2ccc(-c3n[nH]c4ccc(O[C@H](C)c5c(Cl)cncc5Cl)cc34)nn2)C1` [Example 274, (R)-3-allyl-1-(6-(5-(1-(3,5-dichloropyridin-4-yl)ethoxy)-1H-indazol-3-yl)pyridazin-3-yl)azetidin-3-amine], the Kd at FGFR3 and at FGFR1 was 1 to 50 nM each time. The 50% inhibitory concentration (IC50) in experiment [1] fell in the range of 50 to 200 nM; in experiment [2], 0.1 to 50 nM; in experiment [3], 0.1 to 50 nM; in experiment [4], 200 to 1000 nM.
As to `CC(C)=CCC1(N)CN(c2ncc(-c3n[nH]c4ccc(O[C@H](C)c5c(Cl)cncc5Cl)cc34)cc2F)C1` [Example 271, (R)-1-(5-(5-(1-(3,5-dichloropyridin-4-yl)ethoxy)-1H-indazol-3-yl)-3-fluoropyridin-2-yl)-3-(3-methylbut-2-en-1-yl)azetidin-3-amine], the Kd on FGFR3 and at FGFR1 was 1 to 50 nM in each case. The IC50 in experiment [1] lay within 200 to 1000 nM; in experiment [2] it was 50 to 200 nM; in experiment [3] it was 0.1 to 50 nM; in [4], 0.1 to 50 nM.
As to `C[C@@H](Oc1ccc2[nH]nc(-c3ccc(N4CC(N)(CCO)C4)nn3)c2c1)c1c(Cl)cncc1Cl` [Example 267, (R)-2-(3-amino-1-(6-(5-(1-(3,5-dichloropyridin-4-yl)ethoxy)-1H-indazol-3-yl)pyridazin-3-yl)azetidin-3-yl)ethanol], the Kd at FGFR3 and on FGFR1 was 1 to 50 nM throughout. The IC50 in experiment [1] was greater than 1000 nM; in [2], 50 to 200 nM; in experiment [3], 0.1 to 50 nM; in experiment [4], 200 to 1000 nM.
Regarding `C[C@@H](Oc1ccc2[nH]nc(-c3cnc(N4CC(N)(Cc5ccn(C)n5)C4)c(F)c3)c2c1)c1c(Cl)cncc1Cl` [Example 282, (R)-1-(5-(5-(1-(3,5-dichloropyridin-4-yl)ethoxy)-1H-indazol-3-yl)-3-fluoropyridin-2-yl)-3-((1-methyl-1H-pyrazol-3-yl)methyl)azetidin-3-amine], the Kd on FGFR3 and on FGFR1 was 1 to 50 nM throughout. In addition, the half-inhibitory concentration (IC50) in experiment [1] was 50 to 200 nM; in experiment [2], 50 to 200 nM; in experiment [3], 0.1 to 50 nM; in [4], 50 to 200 nM.
Take `CC(C)CNC1(C)CN(c2ccc(-c3n[nH]c4ccc(O[C@H](C)c5c(Cl)cncc5Cl)cc34)nn2)C1` [Example 242, (R)-1-(6-(5-(1-(3,5-dichloropyridin-4-yl)ethoxy)-1H-indazol-3-yl)pyridazin-3-yl)-N-isobutyl-3-methylazetidin-3-amine]: the Kd on FGFR3 and at FGFR1 was 1 to 50 nM each time. In addition, the IC50 lay within 50 to 200 nM in [1], 50 to 200 nM in experiment [2], 0.1 to 50 nM in [3] and 200 to 1000 nM in experiment [4].
In the case of `C[C@@H](Oc1ccc2[nH]nc(-c3cnc(N4CC(C)(N5CCCC5)C4)c(C#N)c3)c2c1)c1c(Cl)cncc1Cl` [Example 17, (R)-5-(5-(1-(3,5-Dichloropyridin-4-yl)ethoxy)-1H-indazol-3-yl)-2-(3-methyl-3-(pyrrolidin-1-yl)azetidin-1-yl)nicotinonitrile], the Kd on FGFR4, on FGFR2, at FGFR3 (V555M), at FGFR3 and on FGFR1 was 1 to 50 nM each time. The IC50 in experiment [1] was 200 to 1000 nM; in experiment [2], 200 to 1000 nM; in [3] it was 50 to 200 nM; in [5], 0.1 to 50 nM.
As to `COc1cc2[nH]nc(-c3cnc(N4CC(C)(N5CCCC5)C4)c(C#N)c3)c2cc1O[C@H](C)c1c(Cl)cncc1Cl` [Example 15, 5-[5-[(1R)-1-(3,5-dichloro-4-pyridyl)ethoxy]-6-methoxy-1H-indazol-3-yl]-2-(3-methyl-3-pyrrolidin-1-yl-azetidin-1-yl)pyridine-3-carbonitrile], the Kd at FGFR4, at FGFR2, at FGFR3 (V555M), on FGFR3 and at FGFR1 was 1 to 50 nM each time. In addition, the IC50 in experiment [1] lay within 50 to 200 nM; in [2], 50 to 200 nM; in [3], 0.1 to 50 nM; in experiment [5], 0.1 to 50 nM.
